Results reported in patent publication US12606561B2, “Substituted pyrazolo[1,5-a][1,3,5]triazines as CDK inhibitors” (QURIENT CO., LTD., priority 2018, dated 2026).

What was measured:
A2780 = A2780 viability assay (CellTiter-Glo, 72 hours); type: cell-based; conditions: Homo sapiens; A2780 cells
How it was run: (§1)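 CellTiter-Glo luminescence measured viability after 72 h of compound exposure (0.0015–10 uM; DMSO below 0.1%) at 37 °C, 5% CO2, run in duplicate. Dosing began 24 h post-seeding in RPMI-1640/10% FBS at 1×10^4 (MV4-11), 5×10^3 (OVCAR-3) or 1×10^3 (A2780) cells/well.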

CDK5/p25 = target: T1, CDK5/p25 (Homo sapiens, UniProt Q00535); experiment: Enzymatic assay for CDK5 (LANCE Ultra kinase assay, FRET based); type: biochemical; conditions: ATP at Km
T1 construct: purchased Invitrogen PR8543B
T1 sequence (Q00535 whole entry): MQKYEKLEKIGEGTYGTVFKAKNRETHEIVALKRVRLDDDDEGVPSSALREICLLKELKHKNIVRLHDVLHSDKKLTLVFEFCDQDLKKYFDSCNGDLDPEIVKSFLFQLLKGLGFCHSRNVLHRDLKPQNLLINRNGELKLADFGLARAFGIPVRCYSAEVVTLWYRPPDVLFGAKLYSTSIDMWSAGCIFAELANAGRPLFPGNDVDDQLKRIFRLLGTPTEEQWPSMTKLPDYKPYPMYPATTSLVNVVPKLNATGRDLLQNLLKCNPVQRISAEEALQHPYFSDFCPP
T1 sequence (Q15078 99-307 partner limits assumed): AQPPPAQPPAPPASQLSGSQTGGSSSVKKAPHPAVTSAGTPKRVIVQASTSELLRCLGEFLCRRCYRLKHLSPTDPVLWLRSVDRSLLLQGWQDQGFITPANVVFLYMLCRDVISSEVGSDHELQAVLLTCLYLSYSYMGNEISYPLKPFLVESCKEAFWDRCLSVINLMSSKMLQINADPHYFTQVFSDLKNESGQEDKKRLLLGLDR
How it was run: (§2)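 TR-FRET kinase assay at ATP Km with ULight-MBP peptide (68 nM) and Eu-anti-phospho-MBP antibody; CDK2/Cyclin A at […], CDK5/p25 at […]. 8-dose 4-fold compound dilutions; 60 min kinase reaction at 23° C., EDTA stop, 60 min detection, read at 615/665 nm.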

CDK1/Cyclin B = target: T2, CDK1/Cyclin B (Homo sapiens, UniProt P06493); experiment: Enzymatic assay for CDK1 (LANCE Ultra kinase assay, FRET based); type: biochemical; conditions: ATP at Km; read-out: CDK1 enzymatic activity IC50
T2 construct: purchased Invitrogen PR4768C
T2 sequence (P06493 whole entry): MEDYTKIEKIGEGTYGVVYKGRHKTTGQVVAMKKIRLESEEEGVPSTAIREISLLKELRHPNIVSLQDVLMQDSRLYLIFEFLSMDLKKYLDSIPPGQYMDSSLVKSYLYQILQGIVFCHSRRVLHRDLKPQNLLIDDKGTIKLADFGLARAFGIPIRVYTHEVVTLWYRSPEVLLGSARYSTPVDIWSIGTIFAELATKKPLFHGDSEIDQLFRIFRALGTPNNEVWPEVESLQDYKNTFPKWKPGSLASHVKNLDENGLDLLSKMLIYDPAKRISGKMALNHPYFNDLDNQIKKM
T2 sequence (P14635 whole entry partner): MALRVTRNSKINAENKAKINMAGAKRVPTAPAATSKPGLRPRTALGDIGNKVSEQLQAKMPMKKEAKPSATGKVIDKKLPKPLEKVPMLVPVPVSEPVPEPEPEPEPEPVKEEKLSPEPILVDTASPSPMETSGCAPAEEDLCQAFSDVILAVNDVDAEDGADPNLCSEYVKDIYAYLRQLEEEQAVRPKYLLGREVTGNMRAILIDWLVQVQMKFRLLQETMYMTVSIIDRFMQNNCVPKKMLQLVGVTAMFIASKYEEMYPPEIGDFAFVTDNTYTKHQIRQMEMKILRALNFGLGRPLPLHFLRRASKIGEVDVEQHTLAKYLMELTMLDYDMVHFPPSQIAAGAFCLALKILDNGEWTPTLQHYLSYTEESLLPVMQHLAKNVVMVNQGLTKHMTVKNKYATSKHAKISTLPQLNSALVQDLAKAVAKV
How it was run: (§3)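 Purified CDK7/Cyclin H/MNAT1 or CDK1/Cyclin B complexes were tested for inhibition at Km ATP. Phosphorylation of a ULight-labelled peptide was detected by FRET with a Europium anti-phospho antibody (LANCE Ultra).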

CDK7/Cyclin H/MNAT1 = target: T3, CDK7/Cyclin H/MNAT1 (Homo sapiens, UniProt P50613); experiment: Enzymatic assay for CDK7 (LANCE Ultra kinase assay, FRET based); type: biochemical; conditions: for IC50: ATP at Km
T3 construct: purchased Invitrogen PR6749B
T3 sequence (P50613 whole entry): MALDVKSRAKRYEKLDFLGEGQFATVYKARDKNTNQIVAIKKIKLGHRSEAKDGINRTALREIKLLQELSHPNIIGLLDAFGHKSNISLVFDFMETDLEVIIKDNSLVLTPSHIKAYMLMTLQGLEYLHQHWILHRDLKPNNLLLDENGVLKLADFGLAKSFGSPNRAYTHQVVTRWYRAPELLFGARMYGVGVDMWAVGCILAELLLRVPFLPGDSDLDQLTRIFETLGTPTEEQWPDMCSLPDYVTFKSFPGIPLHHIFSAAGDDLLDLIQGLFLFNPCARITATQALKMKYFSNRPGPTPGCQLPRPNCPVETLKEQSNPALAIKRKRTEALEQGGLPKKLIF
T3 sequence (P51946 whole entry partner): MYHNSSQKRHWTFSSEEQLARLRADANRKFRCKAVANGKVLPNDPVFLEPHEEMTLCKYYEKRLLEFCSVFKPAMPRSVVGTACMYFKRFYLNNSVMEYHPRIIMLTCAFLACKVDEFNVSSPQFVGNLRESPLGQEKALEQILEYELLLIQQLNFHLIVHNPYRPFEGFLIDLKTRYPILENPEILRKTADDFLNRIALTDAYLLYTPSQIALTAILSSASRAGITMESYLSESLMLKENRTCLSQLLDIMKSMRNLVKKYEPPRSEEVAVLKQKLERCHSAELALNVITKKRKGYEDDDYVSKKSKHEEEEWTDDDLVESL
T3 sequence (P51948 whole entry partner): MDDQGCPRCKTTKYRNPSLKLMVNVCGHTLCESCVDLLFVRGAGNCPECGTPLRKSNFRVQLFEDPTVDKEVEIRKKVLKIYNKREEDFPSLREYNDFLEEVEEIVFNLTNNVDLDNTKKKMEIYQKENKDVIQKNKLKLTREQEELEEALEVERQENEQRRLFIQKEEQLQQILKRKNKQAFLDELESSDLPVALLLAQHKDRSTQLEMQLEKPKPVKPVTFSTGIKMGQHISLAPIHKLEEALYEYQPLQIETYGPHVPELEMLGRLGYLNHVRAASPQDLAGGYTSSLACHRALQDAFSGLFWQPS
How it was run: as §3

CDK2/Cyclin A = target: T4, CDK2/Cyclin A (Homo sapiens, UniProt P24941); experiment: Enzymatic assay for CDK2 (LANCE Ultra kinase assay, FRET based); type: biochemical; conditions: ATP at Km
T4 construct: purchased Invitrogen PV6290
How it was run: as §2

OVCAR-3 = OVCAR-3 viability assay (CellTiter-Glo, 72 hours); type: cell-based; conditions: Homo sapiens; OVCAR-3 cells
How it was run: as §1

## C=C(F)C(=O)Nc1ccc2c(-c3ccccc3CNc3nc(N[C@H]4CN5CCC4CC5)nc4c(C(C)C)cnn34)nccc2c1 [Compound 176]
A2780
  IC50: < 1000 nM
CDK5/p25
  IC50: > 1000 nM
CDK1/Cyclin B
  IC50: > 1000 nM
CDK7/Cyclin H/MNAT1
  IC50: < 100 nM
  CDK1/CDK7: Selectivity of CDK7 inhibition over CDK1 inhibition: A (A indicates [fold] > 500)
  CDK2/CDK7: Selectivity of CDK7 inhibition over CDK2 inhibition: A (A indicates [fold] > 500)
  CDK5/CDK7: Selectivity of CDK7 inhibition over CDK5 inhibition: A (A indicates [fold] > 500)
CDK2/Cyclin A
  IC50: > 1000 nM
OVCAR-3
  IC50: < 1000 nM

## C=C(F)C(=O)Nc1ccc2c(-c3ccccc3CNc3nc(OC4CCC(C)(C)NC4)nc4c(C(C)C)cnn34)nccc2c1 (stereo not drawn) [Compound 177]
A2780
  IC50: < 1000 nM
CDK5/p25
  IC50: > 1000 nM
CDK1/Cyclin B
  IC50: > 1000 nM
CDK7/Cyclin H/MNAT1
  IC50: < 100 nM
  CDK1/CDK7: Selectivity of CDK7 inhibition over CDK1 inhibition: A (A indicates [fold] > 500)
  CDK2/CDK7: Selectivity of CDK7 inhibition over CDK2 inhibition: A (A indicates [fold] > 500)
  CDK5/CDK7: Selectivity of CDK7 inhibition over CDK5 inhibition: A (A indicates [fold] > 500)
CDK2/Cyclin A
  IC50: > 1000 nM
OVCAR-3
  IC50: < 1000 nM

## C=C(C)C(=O)Nc1ccc2c(-c3ccccc3CNc3nc(NC4CCC(C)(C)NC4)nc4c(C(C)C)cnn34)nccc2c1 (stereo not drawn) [Compound 181]
A2780
  IC50: < 1000 nM
CDK5/p25
  IC50: > 1000 nM
CDK1/Cyclin B
  IC50: > 1000 nM
CDK7/Cyclin H/MNAT1
  IC50: < 100 nM
  CDK1/CDK7: Selectivity of CDK7 inhibition over CDK1 inhibition: A (A indicates [fold] > 500)
  CDK2/CDK7: Selectivity of CDK7 inhibition over CDK2 inhibition: A (A indicates [fold] > 500)
  CDK5/CDK7: Selectivity of CDK7 inhibition over CDK5 inhibition: A (A indicates [fold] > 500)
CDK2/Cyclin A
  IC50: > 1000 nM
OVCAR-3
  IC50: < 1000 nM

## CC(C)c1cnn2c(NCc3ccccc3-c3nccc4cc(NC(=O)/C=C/CN(C)C)ccc34)cc(N3CCC4(CC3)OCCO4)nc12 [Compound 124]
A2780
  IC50: < 1000 nM
CDK5/p25
  IC50: > 1000 nM
CDK1/Cyclin B
  IC50: > 1000 nM
CDK7/Cyclin H/MNAT1
  IC50: < 100 nM
  CDK1/CDK7: Selectivity of CDK7 inhibition over CDK1 inhibition: B (B indicates 50 < [fold] ≤ 500)
  CDK2/CDK7: Selectivity of CDK7 inhibition over CDK2 inhibition: B (B indicates 50 < [fold] ≤ 500)
  CDK5/CDK7: Selectivity of CDK7 inhibition over CDK5 inhibition: B (B indicates 50 < [fold] ≤ 500)
CDK2/Cyclin A
  IC50: > 1000 nM
OVCAR-3
  IC50: < 1000 nM

## C=C(F)C(=O)Nc1ccc2c(-c3ccccc3CNc3nc(NC[C@@H]4CCNC[C@H]4O)nc4c(C(C)C)cnn34)nccc2c1 [Compound 157]
A2780
  IC50: < 1000 nM
CDK5/p25
  IC50: > 1000 nM
CDK1/Cyclin B
  IC50: > 1000 nM
CDK7/Cyclin H/MNAT1
  IC50: < 100 nM
  CDK1/CDK7: Selectivity of CDK7 inhibition over CDK1 inhibition: B (B indicates 50 < [fold] ≤ 500)
  CDK2/CDK7: Selectivity of CDK7 inhibition over CDK2 inhibition: B (B indicates 50 < [fold] ≤ 500)
  CDK5/CDK7: Selectivity of CDK7 inhibition over CDK5 inhibition: B (B indicates 50 < [fold] ≤ 500)
CDK2/Cyclin A
  IC50: > 1000 nM
OVCAR-3
  IC50: 1000 to 10000 nM

## C=C(F)C(=O)Nc1ccc2c(-c3ccccc3CNc3nc(-c4cccc(OC5CCNC5)c4)nc4c(C(C)C)cnn34)nccc2c1 (racemic) [Compound 87]
A2780
  IC50: < 1000 nM
CDK5/p25
  IC50: > 1000 nM
CDK1/Cyclin B
  IC50: > 1000 nM
CDK7/Cyclin H/MNAT1
  IC50: < 100 nM
  CDK1/CDK7: Selectivity of CDK7 inhibition over CDK1 inhibition: A (A indicates [fold] > 500)
  CDK2/CDK7: Selectivity of CDK7 inhibition over CDK2 inhibition: A (A indicates [fold] > 500)
  CDK5/CDK7: Selectivity of CDK7 inhibition over CDK5 inhibition: A (A indicates [fold] > 500)
CDK2/Cyclin A
  IC50: > 1000 nM
OVCAR-3
  IC50: < 1000 nM

## CC(C)c1cnn2c(NCc3ccccc3-c3nccc4cc(NC(=O)/C=C/CN(C)C)ccc34)nc(N3CCC4(CCOC4)CC3)nc12 [Compound 117]
A2780
  IC50: < 1000 nM
CDK5/p25
  IC50: > 1000 nM
CDK1/Cyclin B
  IC50: > 1000 nM
CDK7/Cyclin H/MNAT1
  IC50: 100 to 1000 nM
  CDK1/CDK7: Selectivity of CDK7 inhibition over CDK1 inhibition: B (B indicates 50 < [fold] ≤ 500)
  CDK2/CDK7: Selectivity of CDK7 inhibition over CDK2 inhibition: B (B indicates 50 < [fold] ≤ 500)
  CDK5/CDK7: Selectivity of CDK7 inhibition over CDK5 inhibition: B (B indicates 50 < [fold] ≤ 500)
CDK2/Cyclin A
  IC50: > 1000 nM
OVCAR-3
  IC50: < 1000 nM

## CC(C)c1cnn2c(NCc3ccccc3-c3nccc4cc(NC(=O)/C=C/CN(C)C)ccc34)nc(N3CCC(C#N)CC3)nc12 [Compound 105]
A2780
  IC50: < 1000 nM
CDK5/p25
  IC50: > 1000 nM
CDK1/Cyclin B
  IC50: > 1000 nM
CDK7/Cyclin H/MNAT1
  IC50: 100 to 1000 nM
  CDK1/CDK7: Selectivity of CDK7 inhibition over CDK1 inhibition: B (B indicates 50 < [fold] ≤ 500)
  CDK2/CDK7: Selectivity of CDK7 inhibition over CDK2 inhibition: B (B indicates 50 < [fold] ≤ 500)
  CDK5/CDK7: Selectivity of CDK7 inhibition over CDK5 inhibition: B (B indicates 50 < [fold] ≤ 500)
CDK2/Cyclin A
  IC50: > 1000 nM
OVCAR-3
  IC50: < 1000 nM

## C=C(F)C(=O)Nc1ccc2c(-c3ccccc3CNc3nc(O[C@H]4CCCNC4)nc4c(C(C)C)cnn34)nccc2c1 [Compound 159]
A2780
  IC50: < 1000 nM
CDK5/p25
  IC50: > 1000 nM
CDK1/Cyclin B
  IC50: > 1000 nM
CDK7/Cyclin H/MNAT1
  IC50: 100 to 1000 nM
  CDK1/CDK7: Selectivity of CDK7 inhibition over CDK1 inhibition: B (B indicates 50 < [fold] ≤ 500)
  CDK2/CDK7: Selectivity of CDK7 inhibition over CDK2 inhibition: B (B indicates 50 < [fold] ≤ 500)
  CDK5/CDK7: Selectivity of CDK7 inhibition over CDK5 inhibition: B (B indicates 50 < [fold] ≤ 500)
CDK2/Cyclin A
  IC50: > 1000 nM
OVCAR-3
  IC50: 1000 to 10000 nM

## C=CC(=O)Nc1ccc2c(-c3ccccc3CNc3nc(N4C5CCC4CC(O)C5)nc4c(C(C)C)cnn34)nccc2c1 (stereo not drawn) [Compound 114]
A2780
  IC50: 1000 to 10000 nM
CDK5/p25
  IC50: > 1000 nM
CDK1/Cyclin B
  IC50: > 1000 nM
CDK7/Cyclin H/MNAT1
  IC50: < 100 nM
  CDK1/CDK7: Selectivity of CDK7 inhibition over CDK1 inhibition: A (A indicates [fold] > 500)
  CDK2/CDK7: Selectivity of CDK7 inhibition over CDK2 inhibition: A (A indicates [fold] > 500)
  CDK5/CDK7: Selectivity of CDK7 inhibition over CDK5 inhibition: A (A indicates [fold] > 500)
CDK2/Cyclin A
  IC50: > 1000 nM
OVCAR-3
  IC50: < 1000 nM

## C=C(F)C(=O)Nc1ccc2c(-c3ccccc3CNc3nc(N4CCc5ncccc5C4)nc4c(C(C)C)cnn34)nccc2c1 [Compound 170]
A2780
  IC50: < 1000 nM
CDK5/p25
  IC50: > 1000 nM
CDK1/Cyclin B
  IC50: > 1000 nM
CDK7/Cyclin H/MNAT1
  IC50: 100 to 1000 nM
  CDK1/CDK7: Selectivity of CDK7 inhibition over CDK1 inhibition: B (B indicates 50 < [fold] ≤ 500)
  CDK2/CDK7: Selectivity of CDK7 inhibition over CDK2 inhibition: B (B indicates 50 < [fold] ≤ 500)
  CDK5/CDK7: Selectivity of CDK7 inhibition over CDK5 inhibition: B (B indicates 50 < [fold] ≤ 500)
CDK2/Cyclin A
  IC50: > 1000 nM
OVCAR-3
  IC50: 1000 to 10000 nM

## CC(C)c1cnn2c(NCc3ccccc3-c3nccc4cc(NC(=O)/C=C/CN(C)C)ccc34)nc(N3CCC(=O)CC3)nc12 [Compound 106]
A2780
  IC50: < 1000 nM
CDK5/p25
  IC50: > 1000 nM
CDK1/Cyclin B
  IC50: > 1000 nM
CDK7/Cyclin H/MNAT1
  IC50: 100 to 1000 nM
  CDK1/CDK7: Selectivity of CDK7 inhibition over CDK1 inhibition: C (C indicates [fold] ≤ 50)
  CDK2/CDK7: Selectivity of CDK7 inhibition over CDK2 inhibition: C (C indicates [fold] ≤ 50)
  CDK5/CDK7: Selectivity of CDK7 inhibition over CDK5 inhibition: C (C indicates [fold] ≤ 50)
CDK2/Cyclin A
  IC50: > 1000 nM
OVCAR-3
  IC50: < 1000 nM

## CC(C)c1cnn2c(NCc3ccccc3-c3nccc4cc(NC(=O)/C=C/CN(C)C)ccc34)nc(NC3CCC(C)(C)NC3)nc12 (stereo not drawn) [Compound 179]
A2780
  IC50: < 1000 nM
CDK5/p25
  IC50: > 1000 nM
CDK1/Cyclin B
  IC50: > 1000 nM
CDK7/Cyclin H/MNAT1
  IC50: < 100 nM
  CDK1/CDK7: Selectivity of CDK7 inhibition over CDK1 inhibition: A (A indicates [fold] > 500)
  CDK2/CDK7: Selectivity of CDK7 inhibition over CDK2 inhibition: A (A indicates [fold] > 500)
  CDK5/CDK7: Selectivity of CDK7 inhibition over CDK5 inhibition: A (A indicates [fold] > 500)
CDK2/Cyclin A
  IC50: > 1000 nM
OVCAR-3
  IC50: < 1000 nM

## C=C(F)C(=O)Nc1ccc2c(-c3ccccc3CNc3nc(N[C@H]4CCCNC4)nc4c(C(C)C)cnn34)nccc2c1 [Compound 161]
A2780
  IC50: < 1000 nM
CDK5/p25
  IC50: > 1000 nM
CDK1/Cyclin B
  IC50: > 1000 nM
CDK7/Cyclin H/MNAT1
  IC50: < 100 nM
  CDK1/CDK7: Selectivity of CDK7 inhibition over CDK1 inhibition: A (A indicates [fold] > 500)
  CDK2/CDK7: Selectivity of CDK7 inhibition over CDK2 inhibition: A (A indicates [fold] > 500)
  CDK5/CDK7: Selectivity of CDK7 inhibition over CDK5 inhibition: A (A indicates [fold] > 500)
CDK2/Cyclin A
  IC50: > 1000 nM
OVCAR-3
  IC50: < 1000 nM
